From ChEMBL document CHEMBL3399957, “Synthesis and SAR studies of analogues of 4-(3,3-dimethyl-butyrylamino)-3,5-difluoro-N-thiazol-2-yl-benzamide (Lu AA41063) as adenosine A2A receptor ligands with improved aqueous solubility” (Bioorg Med Chem Lett, 2015)
pIC50, pKi: −log10 of the molar value. In brackets after ≈: the same amount, converted by molar mass. Blank lines part the entries; values can stand above or below the compound they belong to.

Legend:
Adenosine receptor A2a [1] = target: T1, Adenosine receptor A2a (Homo sapiens, UniProt P29274); assay: Antagonist activity at human adenosine A2A receptor
Adenosine receptor A2a [2] = target: T1, Adenosine receptor A2a; assay: Displacement of radioligand from human adenosine A2A receptor at 1000 nM relative to control
[3] = Intrinsic clearance in human liver microsomes; type: ADME; details: read-out: CLH (converted)
Cytochrome P450 2D6 = Cytochrome P450 2D6 (Homo sapiens, UniProt P10635); assay: Inhibition of CYP2D6 (unknown origin); type: ADME
[4] = Aqueous solubility of the compound at pH 7.4; type: physicochemical; details: buffer
Cytochrome P450 3A4 = Cytochrome P450 3A4 (Homo sapiens, UniProt P08684); assay: Inhibition of CYP3A4 (unknown origin); type: ADME
Cytochrome P450 2C19 = Cytochrome P450 2C19 (Homo sapiens, UniProt P33261); assay: Inhibition of CYP2C19 (unknown origin); type: ADME
Cytochrome P450 2C9 = Cytochrome P450 2C9 (Homo sapiens, UniProt P11712); assay: Inhibition of CYP2C9 (unknown origin); type: ADME
Cytochrome P450 1A2 = target: T2, Cytochrome P450 1A2 (Homo sapiens, UniProt P05177); assay: Inhibition of CYP1A2 (unknown origin); type: ADME
T2 sequence (P05177 whole entry): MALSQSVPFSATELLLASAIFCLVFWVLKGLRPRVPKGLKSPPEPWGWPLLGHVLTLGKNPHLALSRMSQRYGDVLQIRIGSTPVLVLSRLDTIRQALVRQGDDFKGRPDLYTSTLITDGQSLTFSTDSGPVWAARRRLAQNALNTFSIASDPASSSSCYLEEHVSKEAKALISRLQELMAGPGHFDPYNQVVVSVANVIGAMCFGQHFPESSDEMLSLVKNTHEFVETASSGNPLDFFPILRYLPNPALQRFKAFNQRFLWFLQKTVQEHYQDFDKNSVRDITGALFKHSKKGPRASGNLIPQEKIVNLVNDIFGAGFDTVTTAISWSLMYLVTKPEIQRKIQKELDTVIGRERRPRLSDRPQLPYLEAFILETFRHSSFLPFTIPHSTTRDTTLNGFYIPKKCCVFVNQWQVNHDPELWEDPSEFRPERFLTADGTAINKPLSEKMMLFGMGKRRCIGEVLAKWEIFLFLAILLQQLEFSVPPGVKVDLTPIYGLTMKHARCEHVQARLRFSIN

[5] = Aqueous solubility of the compound; type: physicochemical; details: buffer

T1 sequence (P29274 whole entry): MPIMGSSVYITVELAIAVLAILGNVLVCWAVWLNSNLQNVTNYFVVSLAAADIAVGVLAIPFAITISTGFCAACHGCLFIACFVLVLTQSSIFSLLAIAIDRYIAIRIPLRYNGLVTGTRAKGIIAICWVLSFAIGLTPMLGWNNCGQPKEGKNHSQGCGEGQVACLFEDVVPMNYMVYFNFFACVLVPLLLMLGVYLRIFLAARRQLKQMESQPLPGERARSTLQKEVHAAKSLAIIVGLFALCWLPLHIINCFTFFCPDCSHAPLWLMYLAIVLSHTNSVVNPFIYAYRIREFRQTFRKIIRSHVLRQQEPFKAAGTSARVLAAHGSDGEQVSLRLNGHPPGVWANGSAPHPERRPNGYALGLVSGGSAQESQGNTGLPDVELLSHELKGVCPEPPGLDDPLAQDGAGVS
Chain of Cytochrome P450 2C19 (P33261 whole entry): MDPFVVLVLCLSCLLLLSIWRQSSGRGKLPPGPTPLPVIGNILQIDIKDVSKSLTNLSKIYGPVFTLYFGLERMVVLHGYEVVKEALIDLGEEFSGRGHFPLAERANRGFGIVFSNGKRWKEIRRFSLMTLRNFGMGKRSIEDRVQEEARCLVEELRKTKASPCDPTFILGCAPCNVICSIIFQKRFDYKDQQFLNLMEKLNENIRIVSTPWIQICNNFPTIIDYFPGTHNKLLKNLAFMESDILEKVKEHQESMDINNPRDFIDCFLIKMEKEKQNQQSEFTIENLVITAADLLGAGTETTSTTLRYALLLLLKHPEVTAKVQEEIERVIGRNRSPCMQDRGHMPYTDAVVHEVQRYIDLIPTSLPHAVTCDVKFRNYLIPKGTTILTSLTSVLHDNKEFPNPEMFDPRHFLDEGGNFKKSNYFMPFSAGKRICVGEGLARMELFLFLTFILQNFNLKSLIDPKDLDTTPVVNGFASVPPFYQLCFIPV
Chain of Cytochrome P450 3A4 (P08684 whole entry): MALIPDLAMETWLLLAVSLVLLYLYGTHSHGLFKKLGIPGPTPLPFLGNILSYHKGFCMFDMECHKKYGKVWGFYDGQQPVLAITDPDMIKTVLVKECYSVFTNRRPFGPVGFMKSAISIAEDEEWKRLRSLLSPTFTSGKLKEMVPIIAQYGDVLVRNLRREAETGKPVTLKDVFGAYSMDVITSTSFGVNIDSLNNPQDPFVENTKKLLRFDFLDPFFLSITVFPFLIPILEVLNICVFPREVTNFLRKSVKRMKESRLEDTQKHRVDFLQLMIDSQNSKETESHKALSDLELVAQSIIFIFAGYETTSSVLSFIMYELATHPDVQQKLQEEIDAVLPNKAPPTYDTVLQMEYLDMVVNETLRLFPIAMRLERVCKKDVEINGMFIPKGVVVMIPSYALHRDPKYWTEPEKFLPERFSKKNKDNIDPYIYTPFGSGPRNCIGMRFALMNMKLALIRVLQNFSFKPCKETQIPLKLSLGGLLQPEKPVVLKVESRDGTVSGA
Chain of Cytochrome P450 2D6 (P10635 whole entry): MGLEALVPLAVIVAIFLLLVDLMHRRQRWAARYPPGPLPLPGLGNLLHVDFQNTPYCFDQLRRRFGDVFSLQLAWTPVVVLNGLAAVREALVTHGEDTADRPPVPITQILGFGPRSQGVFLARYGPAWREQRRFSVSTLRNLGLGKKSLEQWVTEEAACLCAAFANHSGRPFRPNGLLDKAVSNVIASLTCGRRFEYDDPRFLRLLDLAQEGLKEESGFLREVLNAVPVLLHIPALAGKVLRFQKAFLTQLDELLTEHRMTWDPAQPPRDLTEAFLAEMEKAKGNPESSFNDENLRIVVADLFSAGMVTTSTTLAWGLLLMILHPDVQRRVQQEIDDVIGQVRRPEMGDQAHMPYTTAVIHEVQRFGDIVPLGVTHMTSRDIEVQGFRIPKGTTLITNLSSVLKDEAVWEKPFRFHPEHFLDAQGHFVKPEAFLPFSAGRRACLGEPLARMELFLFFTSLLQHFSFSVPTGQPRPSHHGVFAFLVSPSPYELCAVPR
Chain of Cytochrome P450 2C9 (P11712 whole entry): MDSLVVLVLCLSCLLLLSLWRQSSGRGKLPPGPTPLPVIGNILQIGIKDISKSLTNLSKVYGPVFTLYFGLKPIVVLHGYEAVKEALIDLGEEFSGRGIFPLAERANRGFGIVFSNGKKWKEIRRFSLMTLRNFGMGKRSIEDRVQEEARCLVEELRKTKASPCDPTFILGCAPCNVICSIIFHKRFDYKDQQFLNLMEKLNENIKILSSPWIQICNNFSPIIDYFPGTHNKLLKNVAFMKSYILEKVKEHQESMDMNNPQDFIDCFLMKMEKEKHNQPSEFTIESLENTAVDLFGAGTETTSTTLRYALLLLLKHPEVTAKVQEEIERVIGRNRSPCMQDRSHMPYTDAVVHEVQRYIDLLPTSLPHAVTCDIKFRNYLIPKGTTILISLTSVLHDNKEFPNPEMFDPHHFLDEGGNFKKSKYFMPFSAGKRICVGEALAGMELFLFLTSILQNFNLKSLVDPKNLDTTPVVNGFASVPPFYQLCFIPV

Structure (SMILES): CCN(CC)CCCCC(=O)Nc1ccc(C(=O)Nc2nccs2)cc1
- pKi (Adenosine receptor A2a [1]): 6.08

Structure (SMILES): O=C(CC1CCNC1)Nc1ccc(C(=O)Nc2nccs2)cc1 (centres undefined)
- pKi (Adenosine receptor A2a [1]): < 5.68

Structure (SMILES): CCN(CC)CCCCCCCC(=O)Nc1ccc(C(=O)Nc2nccs2)cc1
- pKi (Adenosine receptor A2a [1]): 6.89

Structure (SMILES): O=C(CC1CCCN1)Nc1ccc(C(=O)Nc2nccs2)cc1 (centres undefined)
- pKi (Adenosine receptor A2a [1]): 5.18

Structure (SMILES): CC(C)(O)CC(=O)Nc1ccc(C(=O)Nc2nccs2)cc1
- pKi (Adenosine receptor A2a [1]): 5.96

Structure (SMILES): CC(C)(C)CC(=O)Nc1ccc(CNc2nccs2)cc1
- pKi (Adenosine receptor A2a [1]): < 5.22

Structure (SMILES): CC(C)CC(=O)Nc1ccc(C(=O)Nc2nccs2)cc1
- pKi (Adenosine receptor A2a [1]): 7.23

Structure (SMILES): CCN(CC)CCC(C)CC(=O)Nc1ccc(C(=O)Nc2nccs2)cc1 (centres undefined)
- pKi (Adenosine receptor A2a [1]): 6.96

Structure (SMILES): CCN(CC)CCCCCC(=O)Nc1ccc(C(=O)Nc2nccs2)cc1
- pKi (Adenosine receptor A2a [1]): 6.62

Structure (SMILES): CC(C)(C)CC(=O)Nc1ccc(C(=O)Nc2nccs2)nc1
- solubility [5]: 10 µg/mL (≈ 31.4 µM)
- pKi (Adenosine receptor A2a [1]): 6.52

More lines, now with the values ahead:

- pKi (Adenosine receptor A2a [1]): 7.17
Structure (SMILES): O=C(CC1CCCC1)Nc1ccc(C(=O)Nc2nccs2)cc1

- pKi (Adenosine receptor A2a [1]): 6.14
Structure (SMILES): CC(C)CCNc1ccc(C(=O)Nc2nccs2)cc1

- inhibition (Adenosine receptor A2a [2]): 30%
Structure (SMILES): CC(C)(C)CC(=O)Nc1ccc(C(=O)Nc2nccs2)cn1

- pKi (Adenosine receptor A2a [1]): 7.17
Structure (SMILES): Cc1cc(C(=O)Nc2nccs2)ccc1NC(=O)CC(C)(C)C

- inhibition (Adenosine receptor A2a [2]): 1%
Structure (SMILES): Cc1cc(C(=O)Nc2nccs2)ccc1NC(=O)CN(C)C

- CLint scaled [3]: 10.3 mL/min/kg
- pIC50 (Cytochrome P450 2D6): 4.74
- solubility [4]: 116 µg/mL (≈ 288 µM)
- pIC50 (Cytochrome P450 3A4): < 4.40
- pKi (Adenosine receptor A2a [1]): 6.96
- pIC50 (Cytochrome P450 2C19): < 4.40
- pIC50 (Cytochrome P450 2C9): < 4.40
- pIC50 (Cytochrome P450 1A2): < 4.40
Structure (SMILES): CC(CCN1CCOCC1)CC(=O)Nc1ccc(C(=O)Nc2nccs2)cc1 (centres undefined)
